Like-named read-outs stand apart in the source and are kept apart here.
Legend:
Format in all cases: cell-based
[1] = biological target: T1, human M2R (Homo sapiens, UniProt P08172); assay: GloSensor cAMP assay (Gi-mediated cAMP inhibition); conditions: M2, agonist, N.A. = not active; for IC50: read-out: pIC50/pEC50 (Mean ± SEM) M2 (converted)
T1 construct: expressed in transfected cells; host or cells: HEK-293T
T1 sequence (P08172 1-466): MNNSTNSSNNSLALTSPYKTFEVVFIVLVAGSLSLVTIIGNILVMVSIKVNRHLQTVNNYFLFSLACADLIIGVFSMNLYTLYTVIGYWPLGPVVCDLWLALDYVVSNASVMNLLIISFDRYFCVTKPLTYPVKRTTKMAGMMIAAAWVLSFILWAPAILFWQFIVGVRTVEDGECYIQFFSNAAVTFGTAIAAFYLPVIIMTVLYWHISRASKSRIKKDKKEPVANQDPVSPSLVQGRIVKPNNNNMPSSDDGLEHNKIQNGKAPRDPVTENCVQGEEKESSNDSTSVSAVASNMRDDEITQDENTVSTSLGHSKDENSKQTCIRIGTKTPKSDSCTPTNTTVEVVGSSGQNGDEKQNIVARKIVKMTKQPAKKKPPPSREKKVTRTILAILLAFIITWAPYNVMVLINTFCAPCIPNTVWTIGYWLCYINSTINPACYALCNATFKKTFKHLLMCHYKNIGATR
Description: To measure M2 muscarinic receptor induced (Gi-mediated) cAMP inhibition, HEK-293T cells (procured from NCCS, Pune) were co-transfected with human M2R and luciferase based cAMP biosensor (pGloSensor™-22F plasmid; Promega) using PEImax method of transfection in the ratio of 1:1. The transfected cells were incubated at 37° C. in tissue culture incubator with 5% CO2 for 14-16 hours. For GloSensor cAMP assay, after overnight incubation, media from the plate was aspirated and 100 μl of sodium luciferin solution in drug buffer (1×HBSS (pH7.4) and 20 mM HEPES) was added to the cell plates. The plates were then incubated at 37° C. in tissue culture incubator with 5% CO2 for 90 minutes. After incubation, cells were treated with 20 μl of 6× diluted standard carbamoyl choline (10000 nM to 0.01 nM) along with test compounds (in triplicates) and were incubated in a humidified tissue culture incubator at 37° C. with 5% CO2 for 10-15 minutes to get a steady state condition. Ligand incubation was followed by addition of 20 μl of 7×(70 μM) forskoline (FSK) to the plate. FSK incubation was followed by incubation at 37° C. for 10-15 minutes and measurement of luminescence per well using luminescence plate reader (BMG Labtech). The results were plotted as inhibition of FSK stimulated cAMP response (relative luminescence units) using nonlinear regression analysis by Graph-Pad prism V.

[2] = biological target: T2, human M3R (Homo sapiens, UniProt P20309); assay: NFAT-luciferase assay, M3; set-up: IC50 activity, M3 muscarinic receptor antagonist: unit not given beside the values; conditions: for selectivity among muscarinic receptors (in words): M1, M3 and M5 antagonist profiling; for effectiveness relative to known drug darifenacin at M3: compared with darifenacin 8.9 pKi
T2 construct: expressed in transfected cells; host or cells: HEK-293T
T2 sequence (P20309 whole entry): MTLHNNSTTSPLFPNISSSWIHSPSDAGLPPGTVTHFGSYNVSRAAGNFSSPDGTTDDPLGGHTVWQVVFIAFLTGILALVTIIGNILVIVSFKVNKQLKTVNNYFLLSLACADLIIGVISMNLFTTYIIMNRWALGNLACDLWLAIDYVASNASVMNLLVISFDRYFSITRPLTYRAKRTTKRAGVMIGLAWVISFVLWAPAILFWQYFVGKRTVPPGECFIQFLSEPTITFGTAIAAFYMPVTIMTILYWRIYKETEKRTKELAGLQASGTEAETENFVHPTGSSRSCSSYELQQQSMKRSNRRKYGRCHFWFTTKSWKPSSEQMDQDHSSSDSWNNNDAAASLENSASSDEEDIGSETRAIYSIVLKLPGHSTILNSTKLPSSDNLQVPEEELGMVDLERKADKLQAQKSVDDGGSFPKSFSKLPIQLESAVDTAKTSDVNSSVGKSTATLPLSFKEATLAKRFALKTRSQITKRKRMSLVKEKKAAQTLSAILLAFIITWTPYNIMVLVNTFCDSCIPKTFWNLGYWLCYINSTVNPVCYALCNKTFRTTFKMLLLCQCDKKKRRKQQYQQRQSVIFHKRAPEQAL
Description: (§1) To measure the agonist or antagonist activity at M1, M3 and M5 muscarinic receptor, NFAT-luciferase activity was performed in HEK-293T cells (procured from NCCS, Pune) by co-transfecting with human M1R or M3R or M5R and pGL4.30 (luc2P/NFAT-RE/Hygro; Promega Corp,) in 96 well format. The transfected cells were incubated at 37° C. in tissue culture incubator with 5% CO2 for 14-16 hours. To determine the if the test compounds are agonist, the transfected cells were treated with either 20 μl/well of carbamoyl choline (as a positive control) at various concentrations (10000 nM to 0.01 nM) or with various concentrations of test compounds (in triplicates) and were further incubated for 12 hrs in a humidified tissue culture incubator at 37° C. with 5% CO2. For antagonist mode assay, test compound incubation was followed by addition of 20 μl of 7 μM carbamoylcholine (agonist) to the plate. Following 12-14 hrs of drug treatment, media from the plate was aspirated and 100 μl of sodium luciferin solution (10 mg/ml) was added and luminescence per well was recorded using luminescence plate reader (BMG Labtech).

[3] = biological target: T3, human M1R (Homo sapiens, UniProt P11229); assay: NFAT-luciferase assay, M1; conditions: antagonist
T3 construct: expressed in transfected cells; host or cells: HEK-293T
T3 sequence (P11229 1-460): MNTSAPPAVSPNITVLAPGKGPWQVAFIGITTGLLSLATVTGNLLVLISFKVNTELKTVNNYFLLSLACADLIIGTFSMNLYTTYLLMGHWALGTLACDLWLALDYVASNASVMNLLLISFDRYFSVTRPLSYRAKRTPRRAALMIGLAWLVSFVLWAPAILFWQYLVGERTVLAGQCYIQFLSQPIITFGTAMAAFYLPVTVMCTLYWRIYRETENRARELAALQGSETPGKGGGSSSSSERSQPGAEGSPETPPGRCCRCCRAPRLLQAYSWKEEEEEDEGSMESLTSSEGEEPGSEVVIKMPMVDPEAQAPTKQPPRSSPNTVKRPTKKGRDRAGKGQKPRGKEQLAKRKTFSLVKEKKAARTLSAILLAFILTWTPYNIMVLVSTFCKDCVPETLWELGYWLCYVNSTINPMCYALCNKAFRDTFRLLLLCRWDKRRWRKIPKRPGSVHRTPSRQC
Description: as §1

[4] = M3, antagonist, N.A. = not active, read-out: pIC50/pEC50 (Mean ± SEM) M3 (converted)

Structure (SMILES) | IC50 [1] | antagonist activity at M3 receptor (in words) [2] | selectivity among muscarinic receptors (in words) [2] | IC50 [2, 4] | effectiveness relative to known drug darifenacin at M3 [2] | also measured
O=C1CCC[C@@H]2[C@@H]1C[C@@]1(S(=O)(=O)c3ccccc3)C(=O)[C@@H]3c4ccccc4[C@H]1N32 [(−)-RG-02, (−)-(4aS,6S,6aR,11S,12aR)-6-(phenylsulfonyl)-1,2,3,4a,5,6,6a,12a-octahydro-6,11-methanoisoindolo[2,1-a]quinoline-4,13(11H)-dione] |  |  |  |  |  | pIC50/pEC50 (Mean ± SEM) M2 [1]: 8.38 ± 0.35 (agonist)
COC(=O)[C@@H]1c2ccccc2[C@@H]2[C@H](S(=O)(=O)c3ccccc3)C[C@@H]3C(=O)CCC[C@H]3N12 [RG-04, (4aS,6R,6aR,11S,12aR)-methyl 4-oxo-6-(phenylsulfonyl)-1,2,3,4,4a,5,6,6a,11,12a-decahydroisoindolo[2,1-a]quinoline-11-carboxylate] | 566 nM |  |  |  |  | 
CCOC(=O)[C@@H]1c2ccccc2[C@@H]2[C@H](S(=O)(=O)c3ccccc3)C[C@@H]3C(=O)CCC[C@H]3N12 [RG-05, (4aS,6R,6aR,11S,12aR)-ethyl 4-oxo-6-(phenylsulfonyl)-1,2,3,4,4a,5,6,6a,11,12a-decahydroisoindolo[2,1-a]quinoline-11-carboxylate] | 2160 nM |  |  |  |  | 
Cc1ccc(S(=O)(=O)[C@]23C[C@@H]4C(=O)CCC[C@H]4N4[C@H](C2=O)c2ccccc2[C@@H]43)cc1 [RG-06, (4aS,6S,6aR,11S,12aR)-6-tosyl-1,2,3,4a,5,6,6a,12a-octahydro-6,11-methanoisoindolo[2,1-a]quinoline-4,13(11H)-dione] |  | high affinity antagonist of M3 receptor | selective M3 muscarinic receptor antagonist | 0.129 nM | tenfold more effective | IC50 activity, M3 muscarinic receptor antagonist ([2]; as worded in closing text): 9.89
Cc1ccc(S(=O)(=O)[C@]23C[C@H]4C(=O)CC[C@H]4N4[C@H](C2=O)c2ccccc2[C@@H]43)cc1 [RG-09, (3aR,5S,5aR,10S,11aR)-5-tosyl-3a,4,5,5a,10,11a-hexahydro-1H-5,10-methanocyclopenta[5,6]pyrido[2,1-a]isoindole-3,12(2H)-dione] |  | high affinity antagonist of M3 receptor | selective M3 muscarinic receptor antagonist |  | tenfold more effective | IC50 ([2]; as worded in closing text, read-out: IC50 activity, M3 muscarinic receptor antagonist (converted)): 0.102 nM
Cc1ccc(S(=O)(=O)[C@]23CC4=C(OS(=O)(=O)C(F)(F)F)CCC[C@H]4N4[C@H](C2=O)c2ccccc2[C@@H]43)cc1 [RG-13, (6S,6aR,11S,12aR)-13-oxo-6-tosyl-1,2,3,5,6,6a,11,12a-octahydro-6,11-methanoisoindolo[2,1-a]quinolin-4-yl trifluoromethanesulfonate] |  | high affinity antagonist of M3 receptor | nonselective muscarinic receptor antagonist | 0.107 nM |  | IC50 ([3]; M1, N.A. = not active, read-out: pIC50/pEC50 (Mean ± SEM) M1 (converted)): 871 nM; IC50 ([3]; read-out: IC50 at M1 receptor): ≤ 1000 nM
